{"source": "patent US8883428B2", "about": "“Methods to determine atherosclerosis regression, plaque stabilization and cardiovascular risk” (The Regents of the University of California, priority 2009, dated 2014)", "key": {"[1]": {"settings": "patients with coronary artery disease already on statins; measured before and after treatment; FIG. 3"}, "[2]": {"assay": "OxPL/apoA in patients treated with JTT-705, then placebo", "format": "in vivo, human", "settings": "nineteen patients; active treatment followed by placebo; FIG. 4", "procedure": "Patients were then taken off the JTT-705 and placed on placebo. […] Add 50 μl/well. […] Leave at room temperature for 1-2 hours. Wash plate as above. […] Incubate at room temperature for 1 hour. Wash plate with cell washer set at 4 washes. […] Keep in the dark. Read in Chemiluminescence detector as relative light units (RLU). All assays are run in triplicate."}}, "data": [{"smiles": "O=C(O)c1cccnc1", "note": "[niacin]", "values": [{"measurement": "OxPL/apoA change following treatment", "setting": "[1]", "value": "increased significantly"}]}, {"smiles": "CCC(CC)CC1(C(=O)Nc2ccccc2SC(=O)C(C)C)CCCCC1", "note": "[JTT-705]", "values": [{"measurement": "OxPL/apoA change during treatment", "setting": "[2]", "value": "increased during the active treatment"}]}]}
